Data from patent publication US10130630B2, “BTK inhibitors” (MERCK SHARP & DOHME CORP., priority 2014, dated 2018).
Where two headings read alike, the source gives them in different places. Values belong to the compound of their own block, whether it stands above or below them.

How the values were obtained:
[1] = target: T1, BTK enzyme (full-length BTK, hBTK) (Homo sapiens, UniProt Q06187); assay: Btk enzyme activity assay (LANCE TR-FRET); assay type: biochemical; settings: 50 pM hBTK, 25 μM ATP, 60 minute compound and enzyme incubation, read-out: BTK binding IC50
T1 construct: recombinant protein from baculovirus-transfected Sf9 cells: full-length BTK, 6HIS-tag cleaved; 6HIS (cleaved yes); made in house; host or cells: baculovirus-transfected Sf9 cells
Experimental: BTK enzymatic activity was determined with the LANCE (Lanthanide Chelate Excite) TR-FRET (Time-resolved fluorescence resonance energy transfer) assay. […] To each well of a black non-binding surface Corning 384-well microplate (Corning Catalog #3820), 5 nL of compound (2000 fold dilution in final assay volume of 10 μL) was dispensed, followed by the addition of 7.5 μL of 1× kinase buffer (50 mM Hepes 7.5, 10 mM MgCl2, 0.01% Brij-35, 1 mM EGTA, 0.05% BSA & 1 mM DTT) containing 5.09 pg/μL (66.67 pM) of BTK enzyme (recombinant protein from baculovirus-transfected Sf9 cells: full-length BTK, 6HIS-tag cleaved). Following a 60 minute compound and enzyme incubation, each reaction was initiated by the addition of 2.5 μL 1× kinase buffer containing 8 μM biotinylated “A5” peptide (Biotin-[…]-NH2) (SEQ.ID.NO.: 1), and 100 μM ATP. The final reaction in each well of 10 μL consists of 50 pM hBTK, 2 μM biotin-A5-peptide, and 25 μM ATP. Phosphorylation reactions were allowed to proceed for 120 minutes. Reactions were immediately quenched by the addition of 20 uL of 1× quench buffer (15 mM EDTA, 25 mM Hepes 7.3, and 0.1% Triton X-100) containing detection reagents (0.626 nM of LANCE-Eu-W1024-anti-phosphoTyrosine antibody, PerkinElmer and 86.8 nM of Streptavidin-conjugated Dylight 650, Dyomics/ThermoFisher Scientific). After 60 minutes incubation with detection reagents, reaction plates were read on a PerkinElmer EnVision plate reader using standard TR-FRET protocol. Briefly, excitation of donor molecules (Eu-chelate:anti-phospho-antibody) with a laser light source at 337 nm produces energy that can be transferred to Dylight-650 acceptor molecules if this donor:acceptor pair is within close proximity. Fluorescence intensity at both 665 nm (acceptor) and 615 nm (donor) are measured and a TR-FRET ratio calculated for each well (acceptor intensity/donor intensity). IC50 values were determined by 4 parameter robust fit of TR-FRET ratio values vs. (Log10) compound concentrations.
The following Table 2 provides specific IC50 values for all the examples. The IC50 values set forth below were determined according to Assay method described above.

[2] = tested on: adenosine uptake into HeLa cells; assay: [3H]Adenosine uptake assay in HeLa cells; assay type: cell-based; settings: 60 minutes uptake, read-out: ADU inhibition IC50 (adenosine uptake inhibition potency)
Experimental: Compounds were also screened in an adenosine uptake functional cellular assay using the protocol described below.
Adenosine uptake activity was determined by monitoring the accumulation of tritiated adenosine into HeLa cells (ATCC catalog # CCL-2) using a PMT-based radiometric detection instrument. In this assay, the potency (IC50) of each compound was determined from a ten point (1:3 serial dilution; final compound concentration range in assay from 10 μM to 0.032 nM) titration curve using the following outlined procedure. To each well of a 96-well CytoStar-T scintillating microplate (Perkin Elmer Catalog # RPNQ0163), 25 000 HeLa cells in 100 μL of growth medium comprising: Minimum Essential Media (Life Technologies Catalog # 11095-080)+10% (v/v) foetal bovine serum (FBS; Sigma Aldrich Catalog # F2442) was added. These cells were incubated overnight at 37° C. in a humidified atmosphere with 5% (v/v) CO2. After this time the growth medium was removed and replaced with 40 μL assay medium comprising: Hanks balanced salts solution (HBSS; Thermo Fisher Catalog # SH30268.01)+5% (v/v) FBS. Compound stock solutions in DMSO were diluted in assay medium to 2.5× final compound concentration maintaining a constant DMSO concentration of 0.25% (v/v). 40 μL of compound in assay medium was dispensed into individual wells of the Cytostar-T plates and the plates were incubated for 30 minutes under ambient laboratory conditions. Following this incubation, 20 μL of 500 nM [^3H]adenosine (American Radiolabeled Chemicals Inc. Catalog # ART0287) in assay medium was added and incubated for a further 60 minutes under ambient laboratory conditions. The amount of radiolabel accumulation was then determined using a Perkin Elmer Topcount NXT microplate reader. In brief, HeLa cells adhere to the bottom of the Cytostar-T plate, uptake of [^3H]adenosine into these cells brings the radiolabel into sufficient proximity to excite the scintillant in the base of the plates. These events are captured by single PMT, time-resolved coincidence counting. IC50 values were determined by 4 parameter robust fit of counts per second values vs. (Log10) compound concentrations.

T1 sequence (Q06187 whole entry): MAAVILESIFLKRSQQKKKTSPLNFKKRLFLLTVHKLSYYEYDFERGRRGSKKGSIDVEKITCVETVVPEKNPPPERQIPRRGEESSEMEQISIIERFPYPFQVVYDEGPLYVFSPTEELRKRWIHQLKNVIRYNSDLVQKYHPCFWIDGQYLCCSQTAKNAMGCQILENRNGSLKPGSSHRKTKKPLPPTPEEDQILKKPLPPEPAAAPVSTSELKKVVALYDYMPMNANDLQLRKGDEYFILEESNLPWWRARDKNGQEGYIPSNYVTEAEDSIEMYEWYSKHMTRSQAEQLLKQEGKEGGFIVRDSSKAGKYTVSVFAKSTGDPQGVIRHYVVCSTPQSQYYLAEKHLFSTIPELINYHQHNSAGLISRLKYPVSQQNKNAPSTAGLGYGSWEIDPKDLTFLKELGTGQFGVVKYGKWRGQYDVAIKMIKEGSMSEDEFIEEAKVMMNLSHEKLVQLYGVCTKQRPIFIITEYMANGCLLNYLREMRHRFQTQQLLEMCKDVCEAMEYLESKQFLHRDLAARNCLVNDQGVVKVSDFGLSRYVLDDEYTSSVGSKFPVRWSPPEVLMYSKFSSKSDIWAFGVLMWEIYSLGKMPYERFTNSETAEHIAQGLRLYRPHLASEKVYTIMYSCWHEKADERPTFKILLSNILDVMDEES

Compound: COc1cc(C(=O)Nc2cc(C(F)(F)F)ccn2)ccc1-c1nc([C@H]2CC[C@@H]3CC4(CC4)C(=O)N3C2)n2ccnc(N)c12 [Compound 47, 4-{8-amino-3-[(6′S,8a′R)-3′-oxohexahydrospiro[cyclopropane-1,2′-indolizin]-6′-yl]imidazo[1,5-a]pyrazin-1-yl}-3-methoxy-N-[4-(trifluoromethyl)pyridin-2-yl]benzamide]
IC50 [1]: 0.528 nM | IC50 ([2]; Homo sapiens, HeLa): 524 nM

Compound: Nc1nccn2c([C@@H]3CC[C@H]4[C@@H](O)C5(CC5)C(=O)N4C3)nc(-c3ccc(C(=O)Nc4cc(C(F)(F)F)ccn4)cc3)c12 [Compound 10, 4-{8-amino-3-[(1′S,6′R,8a′S)-1′-hydroxy-3′-oxohexahydrospiro[cyclopropane-1,2′-indolizin]-6′-yl]imidazo[1,5-a]pyrazin-1-yl}-N-[4-(trifluoromethyl)pyridin-2-yl]benzamide]
IC50 [1]: 0.952 nM | IC50 ([2]; Homo sapiens, HeLa): 861 nM

Compound: CCOc1cc(C(=O)Nc2cc(C(F)(F)F)ccn2)ccc1-c1nc([C@@H]2CC[C@H]3CN4CCC[C@@H]4C(=O)N3C2)n2ccnc(N)c12 [Compound 15, 4-{8-amino-3-[(5aS,8R,11aR)-11-oxodecahydro-1H-pyrido[1,2-a]pyrrolo[1,2-d]pyrazin-8-yl]imidazo[1,5-a]pyrazin-1-yl}-3-ethoxy-N-[4-(trifluoromethyl)pyridin-2-yl]benzamide]
IC50 [1]: 0.462 nM | IC50 ([2]; Homo sapiens, HeLa): 1110 nM

Compound: CCOc1cc(C(=O)Nc2cc(C(F)(F)F)ccn2)ccc1-c1nc([C@@H]2CC[C@H]3CN4CCC[C@H]4C(=O)N3C2)n2ccnc(N)c12 [Compound 16, 4-{8-amino-3-[(5aS,8R,11aS)-11-oxodecahydro-1H-pyrido[1,2-a]pyrrolo[1,2-d]pyrazin-8-yl]imidazo[1,5-a]pyrazin-1-yl}-3-ethoxy-N-[4-(trifluoromethyl)pyridin-2-yl]benzamide]
IC50 [1]: 0.489 nM | IC50 ([2]; Homo sapiens, HeLa): 1670 nM

Compound: Nc1nccn2c([C@@H]3CC[C@H]4C(=O)C5(CC5)C(=O)N4C3)nc(-c3ccc(C(=O)Nc4cc(C(F)(F)F)ccn4)cc3)c12 [Compound 6, 4-{8-amino-3-[(6′R,8a′S)-1′,3′-dioxohexahydrospiro[cyclopropane-1,2′-indolizin]-6′-yl]imidazo[1,5-a]pyrazin-1-yl}-N-[4-(trifluoromethyl)pyridin-2-yl]benzamide]
IC50 [1]: 0.857 nM | IC50 ([2]; Homo sapiens, HeLa): 152 nM

Compound: CCOc1cc(C(=O)Nc2cc(C(F)(F)F)ccn2)ccc1-c1nc([C@H]2CC[C@H]3N(C2)C(=O)CC32CC2)n2ccnc(N)c12 [Compound 19, 4-{8-amino-3-[(6′S,8a′R)-3′-oxohexahydro-5′H-spiro[cyclopropane-1,1′-indolizin]-6′-yl]imidazo[1,5-a]pyrazin-1-yl}-3-ethoxy-N-[4-(trifluoromethyl)pyridin-2-yl]benzamide]
IC50 [1]: 3.81 nM | IC50 ([2]; Homo sapiens, HeLa): 613 nM

Compound: CCOc1cc(C(=O)Nc2cc(C(F)(F)F)ccn2)ccc1-c1nc([C@@H]2CC[C@@H]3N(C2)C(=O)C2(CC2)C3(F)F)n2ccnc(N)c12 [Compound 3, 4-(8-amino-3-((6′R,8a′S)-1′,1′-difluoro-3′-oxohexahydro-1′H-spiro[cyclopropane-1,2′-indolizin]-6′-yl)imidazo[1,5-a]pyrazin-1-yl)-3-ethoxy-N-(4-(trifluoromethyl)pyridin-2-yl)benzamide]
IC50 [1]: 1 nM | IC50 [2]: 1330 nM

Compound: CCOc1cc(C(=O)Nc2cc(C(F)(F)F)n(C)n2)cc(F)c1-c1nc(C2CCC3N(C2)C(=O)CC32CC2)n2c(F)cnc(N)c12 (stereo not drawn) [Compound 22, 4-[8-amino-5-fluoro-3-(3′-oxohexahydro-5′H-spiro[cyclopropane-1,1′-indolizin]-6′-yl)imidazo[1,5-a]pyrazin-1-yl]-3-ethoxy-5-fluoro-N-[1-methyl-5-(trifluoromethyl)-1H-pyrazol-3-yl]benzamide]
IC50 [1]: 0.269 nM | IC50 ([2]; Homo sapiens, HeLa): 1430 nM

Compound: Nc1nccn2c([C@H]3CC[C@H]4N(C3)C(=O)C3(CC3)C4(F)F)nc(-c3ccc(C(=O)Nc4cc(C(F)(F)F)ccn4)cc3)c12 [Compound 31, 4-{8-amino-3-[(6′S,8a′R)-1′,1′-difluoro-3′-oxohexahydrospiro[cyclopropane-1,2′-indolizin]-6′-yl]imidazo[1,5-a]pyrazin-1-yl}-N-[4-(trifluoromethyl)pyridin-2-yl]benzamide]
IC50 [1]: 0.41 nM | IC50 ([2]; Homo sapiens, HeLa): 144 nM

Compound: Nc1nccn2c([C@@H]3CC[C@H]4[C@@H](O)C5(CC5)C(=O)N4C3)nc(-c3ccc(C(=O)Nc4cc(C(F)(F)F)ccn4)cc3F)c12 [Compound 12, 4-(8-amino-3-((1′S,6′R,8a′S)-1′-hydroxy-3′-oxohexahydro-1′H-spiro[cyclopropane-1,2′-indolizin]-6′-yl)imidazo[1,5-a]pyrazin-1-yl)-3-fluoro-N-(4-(trifluoromethyl)pyridin-2-yl)benzamide]
IC50 [1]: 0.385 nM | IC50 ([2]; Homo sapiens, HeLa): 963 nM

Continued by falling IC50 [1], values first:

IC50 [1]: 9.04 nM | IC50 ([2]; Homo sapiens, HeLa): 1440 nM
Compound: CCOc1cc(C(=O)Nc2cc(C(F)(F)F)n(C)n2)c(F)cc1-c1nc([C@@H]2CC[C@@H]3N(C2)C(=O)C2(CC2)C3(F)F)n2ccnc(N)c12 [Compound 33, 4-{8-amino-3-[(6′R,8a′S)-1′,1′-difluoro-3′-oxohexahydrospiro[cyclopropane-1,2′-indolizin]-6′-yl]imidazo[1,5-a]pyrazin-1-yl}-5-ethoxy-2-fluoro-N-[1-methyl-5-(trifluoromethyl)-1H-pyrazol-3-yl]benzamide]

IC50 [1]: 6.22 nM | IC50 ([2]; Homo sapiens, HeLa): 2950 nM
Compound: CCOc1cc(C(=O)Nc2cc(C(F)(F)F)n(C)n2)ccc1-c1nc([C@@H]2CC[C@@H]3N(C2)C(=O)C2(CC2)C3(F)F)n2ccnc(N)c12 [Compound 32, 4-{8-amino-3-[(6′R,8a′S)-1′,1′-difluoro-3′-oxohexahydrospiro[cyclopropane-1,2′-indolizin]-6′-yl]imidazo[1,5-a]pyrazin-1-yl}-3-ethoxy-N-[1-methyl-5-(trifluoromethyl)-1H-pyrazol-3-yl]benzamide]

IC50 [1]: 1.62 nM | IC50 ([2]; Homo sapiens, HeLa): 183 nM
Compound: Nc1nccn2c([C@@H]3CC[C@H]4C(=O)C5(CC5)C(=O)N4C3)nc(-c3ccc(C(=O)Nc4cc(C5CC5)ccn4)cc3)c12 [Compound 9, 4-{8-amino-3-[(6′R,8a′S)-1′,3′-dioxohexahydrospiro[cyclopropane-1,2′-indolizin]-6′-yl]imidazo[1,5-a]pyrazin-1-yl}-N-(4-cyclopropylpyridin-2-yl)benzamide]

IC50 [1]: 1.47 nM | IC50 ([2]; Homo sapiens, HeLa): 912 nM
Compound: CCOc1cc(C(=O)Nc2cc(C(F)(F)F)ccn2)ccc1-c1nc([C@@H]2CC[C@H]3C(=O)C4(CC4)C(=O)N3C2)n2ccnc(N)c12 [Compound 5, 4-{8-amino-3-[(6′R,8a′S)-1′,3′-dioxohexahydrospiro[cyclopropane-1,2′-indolizin]-6′-yl]imidazo[1,5-a]pyrazin-1-yl}-3-ethoxy-N-[4-(trifluoromethyl)pyridin-2-yl]benzamide]

IC50 [1]: 0.186 nM | IC50 ([2]; Homo sapiens, HeLa): 375 nM
Compound: CCOc1cc(C(=O)Nc2cc(C#N)ccn2)cc(F)c1-c1nc(C2CCC3N(C2)C(=O)CC32CC2)n2c(Cl)cnc(N)c12 (stereo not drawn) [Compound 37, 4-[8-amino-5-chloro-3-(3′-oxohexahydro-5′H-spiro[cyclopropane-1,1′-indolizin]-6′-yl)imidazo[1,5-a]pyrazin-1-yl]-N-(4-cyanopyridin-2-yl)-3-ethoxy-5-fluorobenzamide]
